Test results published in US20100130549A1, “PSYCHOTROPIC COMPOUNDS, COMPOSITIONS AND METHODS OF USE” (priority 2007, published 2010).

Experiments:
Adrenergic α2c = target: T1, Adrenergic α2c (Homo sapiens, UniProt P18825); assay: Radioligand binding assay, Adrenergic α2c
T1 construct: 203800
T1 sequence (P18825 1-462): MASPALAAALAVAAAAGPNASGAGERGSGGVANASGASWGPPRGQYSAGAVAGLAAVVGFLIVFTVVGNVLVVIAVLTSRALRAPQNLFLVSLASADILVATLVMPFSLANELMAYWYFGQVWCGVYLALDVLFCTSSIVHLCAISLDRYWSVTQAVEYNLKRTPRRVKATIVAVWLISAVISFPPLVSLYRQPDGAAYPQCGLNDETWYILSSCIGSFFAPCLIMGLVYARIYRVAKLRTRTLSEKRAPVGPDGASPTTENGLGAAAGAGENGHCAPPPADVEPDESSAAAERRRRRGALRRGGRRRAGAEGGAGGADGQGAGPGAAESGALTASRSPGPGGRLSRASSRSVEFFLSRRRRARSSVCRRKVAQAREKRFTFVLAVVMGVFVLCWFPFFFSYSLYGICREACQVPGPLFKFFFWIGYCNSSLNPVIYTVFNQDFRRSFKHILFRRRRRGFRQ
From the text: (§1) . Table 1 provides data produced via a receptor binding assay and IC50 and Ki determination. […] In addition, the compound of formula (Ia) has a potent DAT inhibition, which is indicative of dopaminergic uptake inhibition and increased DA activity. In addition to the effect on SERT and DAT, the compound of formula (Ia) inhibited the transporter of Norepinephrine (NET), and several neurotransmitter's receptors like alpha2A and alpha2C receptors, alpha 1A and alphal C, 5HT2A and 5HT2C, signal histamine2 and dopamine D1. This specific profile is in line with the data on antidepressant, anxiolytic and moderate neuro-stimulation activity observed in the animal model studies.
(§2) With regard to the data provided in Table 1, the biochemical assay results are presented as the percent inhibition of specific binding or activity throughout the report. For primary assays, only the lowest concentration with a significant response judged by the assays’ criteria, is shown in this summary. […] Unless otherwise requested, primary screening in duplicate with quantitative data (e.g., IC50±SEM, Ki±SEM and nH) are shown.

Adrenergic α1B = target: T2, Adrenergic α1B (Rattus norvegicus, UniProt P15823); assay: Radioligand binding assay, Adrenergic α1B
T2 sequence (P15823 1-515): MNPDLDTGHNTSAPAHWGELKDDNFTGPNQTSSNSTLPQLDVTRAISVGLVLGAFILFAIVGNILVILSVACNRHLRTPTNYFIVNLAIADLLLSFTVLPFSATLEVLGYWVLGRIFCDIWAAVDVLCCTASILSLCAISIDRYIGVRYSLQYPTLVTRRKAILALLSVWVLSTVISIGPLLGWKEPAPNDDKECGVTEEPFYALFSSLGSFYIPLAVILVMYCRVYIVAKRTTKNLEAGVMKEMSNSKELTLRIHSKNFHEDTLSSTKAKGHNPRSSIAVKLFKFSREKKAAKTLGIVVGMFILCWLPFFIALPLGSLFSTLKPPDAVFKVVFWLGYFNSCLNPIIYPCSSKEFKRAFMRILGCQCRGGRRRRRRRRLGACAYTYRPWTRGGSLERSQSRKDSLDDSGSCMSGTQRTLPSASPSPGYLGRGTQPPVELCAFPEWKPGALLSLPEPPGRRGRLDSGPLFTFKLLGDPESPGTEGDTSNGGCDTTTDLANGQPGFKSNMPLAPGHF
From the text: as §1, §2

Sigma σ1 = Sigma σ1 (Homo sapiens, UniProt Q99720); assay: Radioligand binding assay, Sigma σ1
From the text: as §1, §2

[1] = target: Transporter, Norepinephrine (NET) (Homo sapiens, UniProt P23975); assay: Radioligand binding assay, Norepinephrine transporter
From the text: as §1, §2

[2] = target: Serotonin (5-Hydroxytryptamine) 5-HT2A (Homo sapiens, UniProt P28223); assay: Radioligand binding assay, 5-HT2A
From the text: as §1, §2

[3] = target: Serotonin (5-Hydroxytryptamine) 5-HT6 (Homo sapiens, UniProt P50406); assay: Radioligand binding assay, 5-HT6
From the text: as §1, §2

Histamine H2 = Histamine H2 (Homo sapiens, UniProt P25021); assay: Radioligand binding assay, Histamine H2
From the text: as §1, §2

[4] = target: Trasnporter, Dopamine (DAT) (Homo sapiens, UniProt Q01959); assay: Radioligand binding assay, Dopamine transporter
From the text: as §2

[5] = target: Transporter, Serotonin (5-Hydroxytryptamine) (SERT) (Homo sapiens, UniProt P31645); assay: Radioligand binding assay, Serotonin transporter
From the text: as §2

BALB/c mice [6] = assay: Open field test
BALB/c mice [7] = assay: Elevated plus maze; details: 10 mg/kg (equimolar) ip 1 hr prior
SHSY5Y cell-line = assay: Cell viability, neutral red method
[8] = 10 mg/kg (equimolar) ip 1 hr prior
[9] = 10 mg/kg (equimolar) ip 1 hr prior, p<0.001 vs controls

Sequence of Serotonin (5-Hydroxytryptamine) 5-HT2A (P28223 whole entry): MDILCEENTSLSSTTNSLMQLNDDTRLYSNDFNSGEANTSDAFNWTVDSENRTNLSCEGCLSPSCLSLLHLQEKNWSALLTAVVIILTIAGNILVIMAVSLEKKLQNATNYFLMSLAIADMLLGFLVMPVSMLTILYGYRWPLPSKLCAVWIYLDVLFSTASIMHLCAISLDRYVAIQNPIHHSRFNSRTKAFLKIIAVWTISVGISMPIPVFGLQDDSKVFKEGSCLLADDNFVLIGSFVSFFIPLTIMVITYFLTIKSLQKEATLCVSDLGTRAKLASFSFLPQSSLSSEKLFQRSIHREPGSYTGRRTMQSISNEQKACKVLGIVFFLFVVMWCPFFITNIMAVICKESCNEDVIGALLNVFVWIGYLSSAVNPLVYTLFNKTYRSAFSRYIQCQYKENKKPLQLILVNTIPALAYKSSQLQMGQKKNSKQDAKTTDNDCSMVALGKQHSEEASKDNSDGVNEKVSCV
Sequence of Serotonin (5-Hydroxytryptamine) 5-HT6 (P50406 whole entry): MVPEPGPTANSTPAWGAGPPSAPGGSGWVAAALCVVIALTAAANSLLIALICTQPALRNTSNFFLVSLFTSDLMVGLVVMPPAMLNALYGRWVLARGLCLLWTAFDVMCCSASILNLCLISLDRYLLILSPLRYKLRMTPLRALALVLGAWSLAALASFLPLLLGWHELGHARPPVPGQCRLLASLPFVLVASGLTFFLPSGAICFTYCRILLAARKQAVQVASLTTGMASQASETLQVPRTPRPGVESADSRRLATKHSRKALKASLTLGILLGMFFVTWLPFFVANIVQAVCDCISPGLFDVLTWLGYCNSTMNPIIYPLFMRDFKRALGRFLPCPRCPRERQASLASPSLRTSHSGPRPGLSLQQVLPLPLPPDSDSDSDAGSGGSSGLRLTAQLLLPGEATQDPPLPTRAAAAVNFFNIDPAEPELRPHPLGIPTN
Sequence of Transporter, Serotonin (5-Hydroxytryptamine) (SERT) (P31645 whole entry): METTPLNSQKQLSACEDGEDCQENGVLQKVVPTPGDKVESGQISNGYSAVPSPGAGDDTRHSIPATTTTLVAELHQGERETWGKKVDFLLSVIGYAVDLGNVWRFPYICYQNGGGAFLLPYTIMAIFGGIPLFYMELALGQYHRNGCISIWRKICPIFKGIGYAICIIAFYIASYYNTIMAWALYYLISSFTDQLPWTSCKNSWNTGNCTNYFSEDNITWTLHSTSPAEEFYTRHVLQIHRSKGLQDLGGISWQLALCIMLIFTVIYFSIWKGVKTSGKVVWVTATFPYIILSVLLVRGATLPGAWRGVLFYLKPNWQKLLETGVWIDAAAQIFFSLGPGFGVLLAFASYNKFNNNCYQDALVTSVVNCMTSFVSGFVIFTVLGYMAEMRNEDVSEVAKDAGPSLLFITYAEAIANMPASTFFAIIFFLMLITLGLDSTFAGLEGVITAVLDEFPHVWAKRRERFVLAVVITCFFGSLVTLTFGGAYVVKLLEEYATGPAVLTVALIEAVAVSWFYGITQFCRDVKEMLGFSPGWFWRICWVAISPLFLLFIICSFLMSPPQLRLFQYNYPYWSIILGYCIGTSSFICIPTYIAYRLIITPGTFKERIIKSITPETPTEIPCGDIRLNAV
Sequence of Histamine H2 (P25021 whole entry): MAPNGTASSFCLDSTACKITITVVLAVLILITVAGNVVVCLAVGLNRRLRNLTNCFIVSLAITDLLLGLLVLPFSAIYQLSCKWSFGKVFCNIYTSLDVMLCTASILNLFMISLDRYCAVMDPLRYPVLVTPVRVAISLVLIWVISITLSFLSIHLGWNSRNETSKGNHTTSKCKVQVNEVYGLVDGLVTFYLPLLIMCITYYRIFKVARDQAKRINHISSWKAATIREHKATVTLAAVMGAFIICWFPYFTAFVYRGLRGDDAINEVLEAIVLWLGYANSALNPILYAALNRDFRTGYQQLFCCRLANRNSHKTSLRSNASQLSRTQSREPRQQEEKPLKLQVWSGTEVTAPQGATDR
Sequence of Sigma σ1 (Q99720 whole entry): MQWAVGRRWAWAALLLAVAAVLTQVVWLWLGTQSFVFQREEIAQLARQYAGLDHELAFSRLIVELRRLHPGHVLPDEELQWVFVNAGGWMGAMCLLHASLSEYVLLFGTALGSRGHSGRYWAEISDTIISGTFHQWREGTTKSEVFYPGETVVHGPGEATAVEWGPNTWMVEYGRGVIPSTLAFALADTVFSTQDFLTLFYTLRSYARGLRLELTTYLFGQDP
Sequence of Trasnporter, Dopamine (DAT) (Q01959 whole entry): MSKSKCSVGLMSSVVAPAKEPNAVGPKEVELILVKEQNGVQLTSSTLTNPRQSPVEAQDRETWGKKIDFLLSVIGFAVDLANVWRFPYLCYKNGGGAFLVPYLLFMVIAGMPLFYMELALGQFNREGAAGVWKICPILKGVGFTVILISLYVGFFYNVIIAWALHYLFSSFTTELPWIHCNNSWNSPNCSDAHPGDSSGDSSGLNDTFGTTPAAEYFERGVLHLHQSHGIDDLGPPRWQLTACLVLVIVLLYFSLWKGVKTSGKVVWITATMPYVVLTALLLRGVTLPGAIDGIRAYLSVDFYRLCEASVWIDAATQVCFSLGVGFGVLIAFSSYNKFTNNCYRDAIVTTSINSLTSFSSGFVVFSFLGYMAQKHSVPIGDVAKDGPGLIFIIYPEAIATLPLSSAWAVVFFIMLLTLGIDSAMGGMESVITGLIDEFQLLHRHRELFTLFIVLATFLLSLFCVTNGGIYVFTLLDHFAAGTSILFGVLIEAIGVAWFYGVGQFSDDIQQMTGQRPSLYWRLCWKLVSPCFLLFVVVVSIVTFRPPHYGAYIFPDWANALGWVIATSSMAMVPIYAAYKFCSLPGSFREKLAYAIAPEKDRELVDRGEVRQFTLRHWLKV
Sequence of Transporter, Norepinephrine (NET) (P23975 whole entry): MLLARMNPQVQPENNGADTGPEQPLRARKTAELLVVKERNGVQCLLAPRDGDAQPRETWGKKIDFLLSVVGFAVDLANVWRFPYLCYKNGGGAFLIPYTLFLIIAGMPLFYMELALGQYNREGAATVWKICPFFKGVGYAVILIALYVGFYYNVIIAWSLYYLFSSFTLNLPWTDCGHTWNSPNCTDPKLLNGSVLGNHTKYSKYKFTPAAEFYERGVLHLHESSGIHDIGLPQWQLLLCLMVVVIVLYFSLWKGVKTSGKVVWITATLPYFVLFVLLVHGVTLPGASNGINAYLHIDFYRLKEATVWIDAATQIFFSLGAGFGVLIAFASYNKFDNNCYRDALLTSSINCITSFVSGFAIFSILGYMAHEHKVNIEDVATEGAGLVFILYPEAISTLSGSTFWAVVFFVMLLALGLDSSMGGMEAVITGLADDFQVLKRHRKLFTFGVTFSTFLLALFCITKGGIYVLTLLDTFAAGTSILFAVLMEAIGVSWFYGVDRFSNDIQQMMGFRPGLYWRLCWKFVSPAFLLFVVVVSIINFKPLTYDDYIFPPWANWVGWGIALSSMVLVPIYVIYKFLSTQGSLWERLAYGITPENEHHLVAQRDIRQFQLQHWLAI

Q: `CN[C@H]1CC[C@@H](c2ccc(Cl)c(Cl)c2)c2ccc(C#CCCCO)cc21` [compound Ia, (1S-cis)-4-(3,4-dichlorophenyl)-7-(5-hydroxy-1-pentyn-1-yl)-1,2,3,4-tetrahydro-N-methyl-1-naphthalenamine hydroiodide] was tested. Which IC50 (Adrenergic α2c) did it give?
A: 1900 nM

Q: And the nH (Adrenergic α2c)?
A: 1.03

Q: And the inhibition at 3 µM (Adrenergic α2c; 3 μM)?
A: 62%

Q: What about the Ki (Adrenergic α2c; read-out: K1) of the same compound?
A: 276 nM

Q: What about the IC50 (Adrenergic α1B) of the same compound?
A: 562 nM

Q: And the nH (Adrenergic α1B)?
A: 1.08

Q: What about the inhibition at 1 µM (Adrenergic α1B; 1 μM) of the same compound?
A: 63%

Q: What about the Ki (Adrenergic α1B; read-out: K1) of the same compound?
A: 311 nM

Q: And the IC50 (Sigma σ1)?
A: 837 nM

Q: What about the nH (Sigma σ1) of the same compound?
A: 0.627

Q: What about the inhibition at 3 µM (Sigma σ1; 3 μM) of the same compound?
A: 69%

Q: What about the Ki (Sigma σ1; read-out: K1) of the same compound?
A: 352 nM

Q: And the IC50 [1]?
A: 623 nM

Q: And the nH [1]?
A: 0.977

Q: What about the inhibition at 1 µM ([1]; 1 μM) of the same compound?
A: 62%

Q: And the Ki ([1]; read-out: K1)?
A: 618 nM

Q: What about the IC50 [2] of the same compound?
A: 3370 nM

Q: And the nH [2]?
A: 1.06

Q: What about the inhibition at 10 µM ([2]; read-out: % INH.) of the same compound?
A: 81%

Q: And the Ki ([2]; read-out: K1)?
A: 965 nM

Q: And the IC50 [3]?
A: 2600 nM

Q: What about the nH [3] of the same compound?
A: 1.16

Q: And the inhibition at 3 µM ([3]; 3 μM)?
A: 51%

Q: What about the Ki ([3]; read-out: K1) of the same compound?
A: 1210 nM

Q: What about the IC50 (Histamine H2) of the same compound?
A: 1560 nM

Q: What about the nH (Histamine H2) of the same compound?
A: 1.37

Q: And the inhibition at 3 µM (Histamine H2; 3 μM)?
A: 70%

Q: And the Ki (Histamine H2; read-out: K1)?
A: 1280 nM

Q: What about the IC50 [4] of the same compound?
A: < 300 nM

Q: And the inhibition at 0.03 µM ([4]; 0.03 μM)?
A: 51%

Q: And the Ki ([4]; read-out: DAT final Ki)?
A: 29 nM

Q: And the IC50 [5]?
A: < 300 nM

Q: And the inhibition at 0.03 µM ([5]; 0.03 μM)?
A: 86%

Q: What about the Ki ([5]; read-out: SERT final Ki) of the same compound?
A: 1.09 nM

Q: And the “ratio (center/periphery)” value (BALB/c mice [6]; [8])?
A: significantly increase

Q: What about the “total time spent in the center (areas 2+3)” value (BALB/c mice [6]; [8]) of the same compound?
A: significantly increase

Q: What about the “frequency to the center” value (BALB/c mice [6]; 10 mg/kg (equimolar) ip 1 hr prior, controls 1.23) of the same compound?
A: 1.35

Q: What about the distance moved (BALB/c mice [6]; [9]) of the same compound?
A: significantly increase

Q: And the velocity (BALB/c mice [6]; [9])?
A: significantly increase

Q: And the “sedative effect accompanying the anxiolytic activity” value (BALB/c mice [6]; orally 90 min prior)?
A: not accompanied by a sedative effect

Q: And the anti-anxiety effect (BALB/c mice [7])?
A: significant anti-anxiety effect

Q: And the “increase in cell viability compared to control vehicle treated cells” value (SHSY5Y cell-line; 1-5 μM, 24 and 48 hours incubation)?
A: 13-25%

Q: What about the “effect on cell viability over concentration range” value (SHSY5Y cell-line; 1-50 μM, low concentrations neurotrophic, high concentrations apoptosis) of the same compound?
A: biphasic effects

Q: And the “concentration of maximal neurotropic activity” value (SHSY5Y cell-line; concentration range 1-50 μM)?
A: 1 µM
